Measured values taken from patent US20080280855A1, “Process For the Production of Intermediates For the Preparation of Tricyclic Benzimidazoles” (NYCOMED GmbH, priority 2005, published 2008).
Counter-ions that a name gives are not always drawn.

Test system: not given
Experiment: not given
Settings: not given

Q: For `Cc1nc2c(O)c(CC[C@@H](O)c3ccccc3)c(C(=O)N(C)C)cc2n1COCC[Si](C)(C)C`, which melting point is on record?
A: 142 to 143 °C

Q: With `Cc1nc2c3c(c(C(=O)N(C)C)cc2[nH]1)CC[C@@H](c1ccccc1)O3` [C, (8S)-2-Methyl-8-phenyl-3,6,7,8-tetrahydro-chromeno[7,8-d]imidazole-5-carboxylic Acid Dimethylamide] as the compound, how does the melting point read?
A: 215 to 216 °C

Q: For `Cc1nc2c(O)c(CC[C@@H](O)c3ccccc3)c(C(=O)N3CCC3)cc2n1C` [Example 3, (3R)-Azetidin-1-yl-[7-hydroxy-6-(3-hydroxy-3-phenyl-propyl)-2,3-dimethyl-3H-benzoimidazol-5-yl]-methanone], which melting point is on record?
A: 265 to 266 °C

Q: Which melting point does the source give for `CNC(=O)c1cc2c(nc(C)n2C)c(O)c1CC[C@@H](O)c1ccccc1` [Example 4, (3R)-7-Hydroxy-6-(3-hydroxy-3-phenyl-propyl)-2,3-dimethyl-3H-benzoimidazole-5-carboxylic Acid Methylamide] here?
A: 247 to 249 °C

Q: With `Cc1nc2c(O)c(CC[C@@H](O)c3ccc(F)cc3)c(C(=O)N(C)C)cc2n1C` [Example 6, (3R)-6-[3-(4-Fluoro-phenyl)-3-hydroxy-propyl]-7-hydroxy-2,3-dimethyl-3H-benzoimidazole-5-carboxylic Acid Dimethylamide] as the compound, how does the melting point read?
A: 276 to 277 °C

Q: For `Cc1ccccc1[C@H](O)CCc1c(C(=O)N(C)C)cc2c(nc(C)n2C)c1O` [Example 7, (3R)-7-Hydroxy-6-(3-hydroxy-3-o-tolyl-propyl)-2,3-dimethyl-3H-benzoimidazole-5-carboxylic Acid Dimethylamide], which melting point is on record?
A: 139 to 140 °C

Q: For `Cc1nc2c(O)c(CC[C@@H](O)c3ccc4ccccc4c3)c(C(=O)N(C)C)cc2n1C` [Example 10, (3R)-7-Hydroxy-6-(3-hydroxy-3-naphthalen-2-yl-propyl)-2,3-dimethyl-3H-benzoimidazole-5-carboxylic Acid Dimethylamide], which melting point is on record?
A: 145 to 147 °C

Q: For `CCc1ccccc1[C@H](O)CCc1c(C(=O)N(C)C)cc2c(nc(C)n2C)c1O` [Example 11, (3R)-6-[3-(2-Ethyl-phenyl)-3-hydroxy-propyl]-7-hydroxy-2,3-dimethyl-3H-benzoimidazole-5-carboxylic Acid Dimethylamide], which melting point is on record?
A: 135 to 137 °C

Q: With `Cc1nc2c(O)c(CC[C@@H](O)c3cccs3)c(C(=O)N(C)C)cc2n1C` [Example 12, (3R)-7-Hydroxy-6-(3-hydroxy-3-thiophen-2-yl-propyl)-2,3-dimethyl-3H-benzoimidazole-5-carboxylic Acid Dimethylamide] as the compound, how does the melting point read?
A: 264 to 265 °C

Q: For `Cc1ccccc1[C@@H](O)CCc1c(C(=O)N(C)C)cc2c(nc(C)n2C)c1O` [Example 25, (3S)-7-Hydroxy-6-(3-hydroxy-3-o-tolyl-propyl)-2,3-dimethyl-3H-benzoimidazole-5-carboxylic Acid Dimethylamide], which melting point is on record?
A: 203 to 205 °C

Test system: pentagastrin-stimulated acid secretion of the perfused rat stomach
Experiment: Testing of the secretion-inhibiting action on the perfused rat stomach
Settings: dose 1 μmol/kg i.d. (intraduodenal), anesthetized CD rat, female, continuous i.v. pentagastrin infusion

Q: For `Cc1nc2c3c(c(C(=O)N(C)C)cc2n1C)CC[C@@H](c1ccccc1)O3` [A, (8S)-2,3-Dimethyl-8-phenyl-3,6,7,8-tetrahydro-chromeno[7,8-d]imidazole-5-carboxylic Acid Dimethylamide], which inhibition in vivo at 1 µmol/kg is on record?
A: > 60%

Q: For `Cc1nc2c3c(c(C(=O)N(C)C)cc2[nH]1)CC[C@@H](c1ccccc1)O3` [C, (8S)-2-Methyl-8-phenyl-3,6,7,8-tetrahydro-chromeno[7,8-d]imidazole-5-carboxylic Acid Dimethylamide], which inhibition in vivo at 1 µmol/kg is on record?
A: > 90%

Q: For `Cc1nc2c3c(c(C(=O)N4CCC4)cc2n1C)CC[C@@H](c1ccccc1)O3` [D, (8S)-Azetidin-1-yl-(2,3-dimethyl-8-phenyl-3,6,7,8-tetrahydro-chromeno[7,8-d]imidazol-5-yl)-methanone], which inhibition in vivo at 1 µmol/kg is on record?
A: > 50%

Q: For `CNC(=O)c1cc2c(nc(C)n2C)c2c1CC[C@@H](c1ccccc1)O2` [E, (8S)-2,3-Dimethyl-8-phenyl-3,6,7,8-tetrahydro-chromeno[7,8-d]imidazole-5-carboxylic Acid Methylamide], which inhibition in vivo at 1 µmol/kg is on record?
A: > 80%

Q: Which inhibition in vivo at 1 µmol/kg does the source give for `Cc1nc2c3c(c(C(=O)N(C)C)cc2n1C)CC[C@@H](c1ccccc1F)O3` [F, (8S)-8-(2-Fluoro-phenyl)-2,3-dimethyl-3,6,7,8-tetrahydro-chromeno[7,8-d]imidazole-5-carboxylic Acid Dimethylamide] here?
A: > 70%

Q: With `Cc1nc2c3c(c(C(=O)N(C)C)cc2n1C)CC[C@@H](c1ccc(F)cc1)O3` [G, (8S)-8-(4-Fluoro-phenyl)-2,3-dimethyl-3,6,7,8-tetrahydro-chromeno[7,8-d]imidazole-5-carboxylic Acid Dimethylamide Hydrochloride] as the compound, how does the inhibition in vivo at 1 µmol/kg read?
A: 100%

Q: For `Cc1nc2c3c(c(C(=O)N(C)C)cc2n1C)CC[C@@H](c1ccccc1Cl)O3` [I, (8S)-8-(2-Chloro-phenyl)-2,3-dimethyl-3,6,7,8-tetrahydro-chromeno[7,8-d]imidazol-5-carboxylic Acid Dimethylamide], which inhibition in vivo at 1 µmol/kg is on record?
A: > 70%

Q: Which inhibition in vivo at 1 µmol/kg does the source give for `Cc1cc(F)ccc1[C@@H]1CCc2c(C(=O)N(C)C)cc3c(nc(C)n3C)c2O1` [N, (8S)-8-(4-Fluoro-2-methyl-phenyl)-2,3-dimethyl-3,6,7,8-tetrahydro-chromeno[7,8-d]imidazole-5-carboxylic Acid Dimethylamide] here?
A: 100%

Q: Which inhibition in vivo at 1 µmol/kg does the source give for `Cc1ccccc1[C@@H]1CCc2c(C(=O)N3CCCC3)cc3c(nc(C)n3C)c2O1` [O, (8S)-(2,3-Dimethyl-8-o-tolyl-3,6,7,8-tetrahydro-chromeno[7,8-d]imidazol-5-yl)-pyrrolidin-1-yl-methanone] here?
A: > 60%

Q: For `CNC(=O)c1cc2c(nc(C)n2C)c2c1CC[C@@H](c1ccccc1C)O2` [P, (8S)-2,3-Dimethyl-8-o-tolyl-3,6,7,8-tetrahydro-chromeno[7,8-d]imidazole-5-carboxylic Acid Methylamide], which inhibition in vivo at 1 µmol/kg is on record?
A: 100%

Q: With `Cc1ccccc1[C@@H]1CCc2c(C(=O)N3CCC3)cc3c(nc(C)n3C)c2O1` [Q, (8S)-Azetidin-1-yl-(2,3-dimethyl-8-o-tolyl-3,6,7,8-tetrahydro-chromeno[7,8-d]imidazol-5-yl)-methanone] as the compound, how does the inhibition in vivo at 1 µmol/kg read?
A: 100%

Q: For `Cc1sccc1[C@@H]1CCc2c(C(=O)N(C)C)cc3c(nc(C)n3C)c2O1` [V, (8S)-2,3-Dimethyl-8-(2-methyl-thiophen-3-yl)-3,6,7,8-tetrahydro-chromeno[7,8-d]imidazole-5-carboxylic acid dimethylamide], which inhibition in vivo at 1 µmol/kg is on record?
A: 100%

Q: For `Cc1ccccc1[C@@H]1CCc2c(C(=O)NC3CC3)cc3c(nc(C)n3C)c2O1` [W, (8S)-2,3-Dimethyl-8-o-tolyl-3,6,7,8-tetrahydro-chromeno[7,8-d]imidazole-5-carboxylic acid cyclopropylamide], which inhibition in vivo at 1 µmol/kg is on record?
A: 100%

Same assay, conditions: dose 1 μmol/kg i.d. (intraduodenal), in vivo, anesthetized CD rat, female; continuous i.v. pentagastrin infusion

Q: For `Cc1ccccc1[C@@H]1CCc2c(C(=O)N(C)C)cc3c(nc(C)n3C)c2O1` [H, (8S)-2,3-Dimethyl-8-o-tolyl-3,6,7,8-tetrahydro-chromeno[7,8-d]imidazole-5-carboxylic Acid Dimethylamido], which “Inhibition of acid secretion (%)” value is on record?
A: 100%

Q: For `CCc1ccccc1[C@@H]1CCc2c(C(=O)N(C)C)cc3c(nc(C)n3C)c2O1` [L, (8S)-(2-Ethyl-phenyl)-2,3-dimethyl-3,6,7,8-tetrahydro-chromeno[7,8-d]imidazole-5-carboxylic Acid Dimethylamide], which “Inhibition of acid secretion (%)” value is on record?
A: >70%
